Patent publication US20240043435A1, “TYK-2 INHIBITOR” (BEIGENE, LTD., priority 2020, published 2024)

Key:
[1] = target: T1, TYK2-JH2 (aa 575-869, in-house) protein (Homo sapiens, UniProt P29597); test: TYK2-JH2 biochemical assay (HTRF probe displacement); format: binding; settings: Biochemical assay; read-out: TYK2-JH2 IC50
T1 construct: TYK2-JH2 (aa 575-869, in-house) protein; made in house
Outline: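 Recombinant TYK2-JH2 (0.2 nM) was pre-incubated 0.5 h at room temperature with compounds (10 doses, 5-fold dilution; 500× DMSO stocks from 500 uM) in 20 mM HEPES pH 7.5, 10 mM MgCl2, 0.005% BSA, 2 mM DTT, 0.015% Brij-35. Probe displacement was read by HTRF (ex337, em620/665 nm); IC50 from four-parameter logistic fit.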

[2] = tested on: JAK2, TYK2/p-STAT4 (Tyr693) activated by IL-12 in NK-92 cell line; test: IL-12-JAK2, TYK2/p-STAT4 (Tyr693) inhibition IC50 cellular assay; format: cell-based; settings: NK92, Cellular assay; read-out: pSTAT4/IL-12 IC50
Outline: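 NK-92 cells were starved overnight without IL-2 and preincubated 1 h at 37° C with compound (8 doses, 10000–0.61 nM, 4-fold, 0.2% DMSO). They were then stimulated with IL-12 (40 ng/ml final) for 30 min. Lysate p-STAT4 (Tyr693) was read by AlphaLISA SureFire; IC50 from four-parameter logistic fit.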

pSTAT5/GM-CSF = pSTAT5/GM-CSF cellular assay (JAK2 selectivity); format: cell-based; settings: for Selectivity fold (TYK2/JAK2): pSTAT5/GM-CSF IC50 over pSTAT4/IL-12 IC50

T1 sequence (P29597 575-869): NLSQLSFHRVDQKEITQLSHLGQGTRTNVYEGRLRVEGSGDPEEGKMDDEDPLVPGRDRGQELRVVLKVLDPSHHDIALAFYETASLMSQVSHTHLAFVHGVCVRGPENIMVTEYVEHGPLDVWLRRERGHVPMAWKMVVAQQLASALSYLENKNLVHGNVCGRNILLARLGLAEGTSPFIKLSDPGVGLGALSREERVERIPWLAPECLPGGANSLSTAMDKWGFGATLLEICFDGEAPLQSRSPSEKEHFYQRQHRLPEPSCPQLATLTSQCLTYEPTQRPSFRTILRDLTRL

| IC50 [1] | IC50 [2] | IC50 (pSTAT5/GM-CSF) | Compound | Selectivity fold (TYK2/JAK2) (pSTAT5/GM-CSF) |
| --- | --- | --- | --- | --- |
| 0.032 nM | 1.04 nM | > 10000 nM | CC(=O)Nc1cc(Nc2cc(OC(C)C)cc(S(C)(=O)=O)n2)c(-c2ccn(C3CC3)n2)cn1 [Example M2, N-(5-(1-cyclopropyl-1H-pyrazol-3-yl)-4-((4-isopropoxy-6-(methylsulfonyl)pyridin-2-yl)amino)pyridin-2-yl)acetamide] | >9615 fold |
| 0.031 nM | 0.526 nM | 8350 nM | CC(=O)Nc1cc(Nc2cc(C)cc(S(C)(=O)=O)n2)c(-c2ccn(C3CC3)n2)cn1 [Example M3, N-(5-(1-cyclopropyl-1H-pyrazol-3-yl)-4-((4-methyl-6-(methylsulfonyl)pyridin-2-yl)amino)pyridin-2-yl)acetamide] | 15876 fold |
| 0.026 nM | 0.681 nM | > 10000 nM | COCCOc1cc(Nc2cc(NC(C)=O)ncc2-c2ccn(C3CC3)n2)nc(S(C)(=O)=O)c1 [Example M4, N-(5-(1-cyclopropyl-1H-pyrazol-3-yl)-4-((4-(2-methoxyethoxy)-6-(methylsulfonyl)pyridin-2-yl)amino)pyridin-2-yl)acetamide] | >14684 fold |
| 0.032 nM | 0.189 nM | 1550 nM | CCn1ccc(-c2cnc(NC(C)=O)cc2Nc2cccc(S(C)(=O)=O)n2)n1 [Example M5, N-(5-(1-ethyl-1H-pyrazol-3-yl)-4-((6-(methylsulfonyl)pyridin-2-yl)amino)pyridin-2-yl)acetamide] | 8206 fold |
| 0.032 nM | 1.21 nM | > 10000 nM | CCn1ccc(-c2cnc(NC(C)=O)cc2Nc2cc(OC(C)C)cc(S(C)(=O)=O)n2)n1 [Example M6, N-(5-(1-ethyl-1H-pyrazol-3-yl)-4-((4-isopropoxy-6-(methylsulfonyl)pyridin-2-yl)amino)pyridin-2-yl)acetamide] | >8264 fold |
| 0.026 nM | 0.537 nM | > 10000 nM | CCn1ccc(-c2cnc(NC(C)=O)cc2Nc2cc(COC)cc(S(C)(=O)=O)n2)n1 [Example M7, N-(5-(1-ethyl-1H-pyrazol-3-yl)-4-((4-(methoxymethyl)-6-(methylsulfonyl)pyridin-2-yl)amino)pyridin-2-yl)acetamide] | >18621 fold |
| 0.04 nM | 1.64 nM | > 10000 nM | CCn1ccc(-c2cnc(NC(C)=O)cc2Nc2cccc(S(C)(=O)=O)c2)n1 [Example M8, N-(5-(1-ethyl-1H-pyrazol-3-yl)-4-((3-(methylsulfonyl)phenyl)amino)pyridin-2-yl)acetamide] | >6097 fold |
| 0.035 nM | 7.06 nM | > 10000 nM | CCn1ccc(-c2cnc(NC(C)=O)cc2Nc2cc(OC)cc(S(C)(=O)=O)c2)n1 [Example M9, N-(5-(1-ethyl-1H-pyrazol-3-yl)-4-((3-methoxy-5-(methylsulfonyl)phenyl)amino)pyridin-2-yl)acetamide] | >1416 fold |
| 0.034 nM | 9.03 nM | > 10000 nM | CCn1ccc(-c2cnc(NC(C)=O)cc2Nc2cc(C)cc(S(C)(=O)=O)c2)n1 [Example M11, N-(5-(1-ethyl-1H-pyrazol-3-yl)-4-((3-methyl-5-(methylsulfonyl)phenyl)amino)pyridin-2-yl)acetamide] | >1107 fold |
| 0.03 nM | 9.12 nM | > 10000 nM | CCn1ccc(-c2cnc(NC(C)=O)cc2Nc2cc(COC)cc(S(C)(=O)=O)c2)n1 [Example M12, N-(5-(1-ethyl-1H-pyrazol-3-yl)-4-((3-(methoxymethyl)-5-(methylsulfonyl)phenyl)amino)pyridin-2-yl)acetamide] | >1096 fold |
| 0.03 nM | 9.46 nM | > 10000 nM | CCn1ccc(-c2cnc(NC(C)=O)cc2Nc2cc(OCCOC)cc(S(C)(=O)=O)c2)n1 [Example M14, N-(5-(1-ethyl-1H-pyrazol-3-yl)-4-((3-(2-methoxyethoxy)-5-(methylsulfonyl)phenyl)amino)pyridin-2-yl)acetamide] | >1057 fold |
| 0.048 nM | 10.2 nM | > 10000 nM | CCn1ccc(-c2cnc(NC(C)=O)cc2Nc2cc(OCCO)cc(S(C)(=O)=O)c2)n1 [Example M15, N-(5-(1-ethyl-1H-pyrazol-3-yl)-4-((3-(2-hydroxyethoxy)-5-(methylsulfonyl)phenyl)amino)pyridin-2-yl)acetamide] | >977 fold |
| 0.041 nM | 1.09 nM | > 10000 nM | CCn1ccc(-c2cnc(NC(C)=O)cc2Nc2cc(OC3CCCC3)cc(S(C)(=O)=O)n2)n1 [Example M17, N-(4-((4-(cyclopentyloxy)-6-(methylsulfonyl)pyridin-2-yl)amino)-5-(1-ethyl-1H-pyrazol-3-yl)pyridin-2-yl)acetamide] | >9174 fold |
| 0.026 nM | 0.989 nM | > 10000 nM | CCOc1cc(Nc2cc(NC(C)=O)ncc2-c2ccn(CC)n2)nc(S(C)(=O)=O)c1 [Example M18, N-(4-((4-ethoxy-6-(methylsulfonyl)pyridin-2-yl)amino)-5-(1-ethyl-1H-pyrazol-3-y)pyridin-2-yl)acetamide] | >10111 fold |
| 0.032 nM | 2.55 nM | > 10000 nM | CCn1ccc(-c2cnc(NC(C)=O)cc2Nc2cc(OCCO)cc(S(C)(=O)=O)n2)n1 [Example M19, N-(5-(1-ethyl-1H-pyrazol-3-yl)-4-((4-(2-hydroxyethoxy)-6-(methylsulfonyl)pyridin-2-yl)amino)pyridin-2-yl)acetamide] | >3921 fold |
| 0.062 nM | 1.01 nM | > 10000 nM | CCn1ccc(-c2cnc(NC(C)=O)cc2Nc2cc(OCCOC)cc(S(C)(=O)=O)n2)n1 [Example M20, N-(5-(1-ethyl-1H-pyrazol-3-yl)-4-((4-(2-methoxyethoxy)-6-(methylsulfonyl)pyridin-2-yl)amino)pyridin-2-yl)acetamide] | >9900 fold |
| 0.035 nM | 1.69 nM | > 10000 nM | CCn1ccc(-c2cnc(NC(C)=O)cc2Nc2nc(S(C)(=O)=O)ccc2OC(C)C)n1 [Example M21, N-(5-(1-ethyl-1H-pyrazol-3-yl)-4-((3-isopropoxy-6-(methylsulfonyl)pyridin-2-yl)amino)pyridin-2-yl)acetamide] | >5917 fold |
| 0.027 nM | 0.316 nM | 532 nM | CC(=O)Nc1cc(Nc2cccc(S(C)(=O)=O)n2)c(-c2ccn(C(C)C)n2)cn1 [Example M22, N-(5-(1-isopropyl-1H-pyrazol-3-yl)-4-((6-(methylsulfonyl)pyridin-2-yl)amino)pyridin-2-yl)acetamide] | 1683 fold |
| 0.031 nM | 1.08 nM | 3750 nM | CC(=O)Nc1cc(Nc2cc(OC(C)C)cc(S(C)(=O)=O)n2)c(-c2ccn(C(C)C)n2)cn1 [Example M23, N-(4-((4-isopropoxy-6-(methylsulfonyl)pyridin-2-yl)amino)-5-(1-isopropyl-1H-pyrazol-3-yl)pyridin-2-yl)acetamide] | 3471 fold |
| 0.032 nM | 0.487 nM | 2180 nM | COCCOc1cc(Nc2cc(NC(C)=O)ncc2-c2ccn(C(C)C)n2)nc(S(C)(=O)=O)c1 [Example M24, N-(5-(1-isopropyl-1H-pyrazol-3-yl)-4-((4-(2-methoxyethoxy)-6-(methylsulfonyl)pyridin-2-yl)amino)pyridin-2-yl)acetamide] | 4466 fold |
| 0.096 nM | 15.2 nM | > 10000 nM | CC(=O)Nc1cc(Nc2cc(C(F)(F)F)cc(S(C)(=O)=O)c2)c(-c2ccn(C(C)C)n2)cn1 [Example M25, N-(5-(1-isopropyl-1H-pyrazol-3-yl)-4-((3-(methylsulfonyl)-5-(trifluoromethyl)phenyl)amino)pyridin-2-yl)acetamide] | >659 fold |
| 0.046 nM | 4.33 nM | > 10000 nM | CC(=O)Nc1cc(Nc2cc(OC(C)C)cc(S(C)(=O)=O)c2)c(-c2ccn(C(C)C)n2)cn1 [Example M26, N-(4-((3-isopropoxy-5-(methylsulfonyl)phenyl)amino)-5-(1-isopropyl-1H-pyrazol-3-yl)pyridin-2-yl)acetamide] | >2309 fold |
| 0.035 nM | 3.85 nM | > 10000 nM | COc1cc(Nc2cc(NC(C)=O)ncc2-c2ccn(C(C)C)n2)cc(S(C)(=O)=O)c1 [Example M27, N-(5-(1-isopropyl-1H-pyrazol-3-yl)-4-((3-methoxy-5-(methylsulfonyl)phenyl)amino)pyridin-2-yl)acetamide] | >2597 fold |
| 0.032 nM | 16.6 nM | > 10000 nM | CC(=O)Nc1cc(Nc2cc(OCCO)cc(S(C)(=O)=O)n2)c(-c2ccn(C(C)C)n2)cn1 [Example M28, N-(4-((4-(2-hydroxyethoxy)-6-(methylsulfonyl)pyridin-2-yl)amino)-5-(1-isopropyl-1H-pyrazol-3-yl)pyridin-2-yl)acetamide] | >601 fold |
